Measurements: PMC8069832, “New Amides and Phosphoramidates Containing Selenium: Studies on Their Cytotoxicity and Antioxidant Activities in Breast Cancer” (Antioxidants, 2021)

How the values were obtained:
MCF-7 = test: cells; details: Homo sapiens, MCF7, 48 h; for activity at 10 µM: read-out: Cell growth (%) MCF-7; for GI50: read-out: GI50 MCF-7, 48 h, average ± SEM; for CC50: read-out: LC50 MCF-7; for IC (TGI): read-out: TGI MCF-7
HT-29 = test: cells; details: Homo sapiens, HT-29, 48 h; for activity at 10 µM: read-out: Cell growth (%) HT-29; for GI50: read-out: GI50 HT-29; for CC50: read-out: LC50 HT-29; for IC (TGI): read-out: TGI HT-29
CCRF-CEM = test: cells; details: Homo sapiens, 48 h; for activity at 10 µM: read-out: Cell growth (%) CCRF-CEM; for GI50: read-out: GI50 CCRF-CEM; for CC50: read-out: LC50 CCRF-CEM; for IC (TGI): read-out: TGI CCRF-CEM
184B5 = test: MTT cytotoxicity in nonmalignant mammary gland derived cells; assay type: cell-based; details: for GI50 / IC (TGI): Homo sapiens, 184B5, nonmalignant cells, 48 h; for GI50: read-out: GI50 184B5; for IC (TGI): read-out: TGI 184B5; for Selectivity index (SI) = GI50 (184B5)/GI50 (MCF-7): breast
Procedure: (§1) Cell lines were provided by the European Collection of Cell Cultures (ECACC) or by the American Type Culture Collection (ATCC). Seven cell lines were used: MCF-7 (breast adenocarnicoma), 184B5 (nonmalignant, mammary gland derived), CCRF-CEM (lymphoblastic leukemia), HT-29 (colon carcinoma), HTB-54 (lung carcinoma), BEAS-2B (nonmalignant, derived from the bronchial epithelium) and PC-3 (prostate carcinoma). MCF-7, CCRF-CEM, HT-29, HTB-54, BEAS-2B and PC-3 cell lines were grown in RPMI medium (Gibco) supplemented with 10% fetal bovine serum (FBS; Gibco), 100 units/mL penicillin and […] streptomycin (Gibco). 184B5 cells were grown in DMEM/F12 medium supplemented with 5% FBS, 1 × ITS (Lonza), 100 nM hydrocortisone (Aldich), 2 mM sodium pyruvate (Lonza), 20 ng/mL EGF (Sigma-Aldrich), 0.3 nM trans-retinoic acid (Sigma-Aldrich), 100 units/mL penicillin and […] streptomycin. Cells were maintained at 37 °C and 5% CO2.
(§2) The cytotoxic effect of each substance was tested by the MTT method. Each compound was initially dissolved in DMSO at a concentration of 0.01 M, and serial dilutions were prepared with nonsupplemented medium. The cytotoxic effect of each compound was tested at 50 and 10 µM as a first screening. […]
(§3) A total of 1 × 10^4 cells/well in 96-well plates were treated with increasing concentrations of the corresponding compounds for 48 h at 37 °C in a humidified atmosphere containing 5% CO2. Then, cells were incubated with 50 µL of MTT (2 mg/mL stock) for 4 h. The medium was then removed by aspiration, and the formazan crystals were dissolved in […] of DMSO. […] Data were obtained from at least 3 independent experiments performed in quadruplicate. The standard error of the means (SEM) for the cytotoxic parameters was calculated applying the standard deviation formula to the mean values of each parameter for the three independent experiments performed.
(§4) . Cisplatin was used as a standard drug. […]. […] The presence of electron-withdrawing groups (-NO2, -CF3, -Cl) in the phenyl ring favored the cytotoxic activity in the amides, but in the phosphoramidates, the best results were obtained for aliphatic chains methoxy (II.1b, II.2b) and ethoxy (II.1d, II.2d). […].
(§5) The lack of selectivity toward cancerous cells is one of the major issues during the discovery and development of new anticancer agents. Therefore, we evaluated the cytotoxic activity of our compounds against two cell lines derived from nonmalignant breast tissue (184B5) and no malignant bronchial epithelium (BEAS-2B) (Table 2). […].

[1] = as above; assay type: cell-based; details: human
Procedure: as §1, §2, §3, §4, §5

PC-3 = test: cells; assay type: cell-based; details: Homo sapiens; for LC50: PC-3, 48 h, read-out: LC50 PC-3; for GI50 / IC (TGI): PC-3, 48 h, average ± SEM; for GI50: read-out: GI50 PC-3; for IC (TGI): read-out: TGI PC-3
Procedure: as §1, §2, §3, §4

HTB-54 = test: cells; assay type: cell-based; details: Homo sapiens; for CC50: HTB-54, 48 h, read-out: LC50 HTB54; for GI50 / IC (TGI): HTB-54, 48 h, average ± SEM; for GI50: read-out: GI50 HTB54; for IC (TGI): read-out: TGI HTB54
Procedure: as §1, §2, §3, §4

BEAS-2B = test: MTT cytotoxicity in nonmalignant bronchial epithelium cells; assay type: cell-based; details: for GI50 / IC (TGI): Homo sapiens, BEAS-2B, nonmalignant cells, 48 h; for GI50: read-out: GI50 BEAS-2B; for IC (TGI): read-out: TGI BEAS-2B
Procedure: as §1, §2, §3, §4, §5

[2] = as above; assay type: cell-based; details: human
Procedure: as §1, §2, §3, §4, §5

In the case of O=C(Nc1ccc([Se][Se]c2ccc(NC(=O)c3ccccc3)cc2)cc1)c1ccccc1 [I.1a], the activity at 10 µM (MCF-7) is reported as 79.7%, the activity at 10 µM (HT-29) is reported as 82.6% and the activity at 10 µM (CCRF-CEM) is reported as 103%.

In the case of O=C(Nc1ccc([Se][Se]c2ccc(NC(=O)c3ccc(Cl)cc3)cc2)cc1)c1ccc(Cl)cc1 [I.1b], the activity at 10 µM (MCF-7) is reported as 19.8%, the GI50 (MCF-7) is reported as 4.6 ± 0.5 µM and the CC50 (MCF-7) is reported as > 100 µM. For the same compound, the IC (TGI) (MCF-7) was > 100 µM, the activity at 10 µM (HT-29) was -10.7% and the GI50 (HT-29) was 3 ± 1.8 µM. For the same compound, the CC50 (HT-29) was > 100 µM, the IC (TGI) (HT-29) was 7.7 ± 0.6 µM and the GI50 (184B5) was 7.08 µM. For the same compound, the IC (TGI) (184B5) was > 100 µM, the “Selectivity index (SI) = GI50 (184B5)/GI50 (MCF-7)” value (184B5) was 1.57 and the LC50 (50% lethal concentration) at 48 h [1] was > 100 µM. The activity at 10 µM (CCRF-CEM) was 45.5%, the GI50 (CCRF-CEM) was 9 ± 1.6 µM and the CC50 (CCRF-CEM) was > 100 µM. The IC (TGI) (CCRF-CEM) was 72.6 ± 1.1 µM, the LC50 (PC-3) was > 100 µM and the GI50 (PC-3) was 7.7 ± 2.2 µM. The IC (TGI) (PC-3) was > 100 µM, the CC50 (HTB-54) was > 100 µM and the GI50 (HTB-54) was > 100 µM. The IC (TGI) (HTB-54) was > 100 µM, the GI50 (BEAS-2B) was 1.11 µM and the IC (TGI) (BEAS-2B) was 42.8 µM. The LC50 (50% lethal concentration) at 48 h [2] was > 100 µM.

In the case of COc1ccc(C(=O)Nc2ccc([Se][Se]c3ccc(NC(=O)c4ccc(OC)cc4)cc3)cc2)cc1 [I.1c], the activity at 10 µM (MCF-7) is reported as 79%, the activity at 10 µM (HT-29) is reported as 81.4% and the activity at 10 µM (CCRF-CEM) is reported as 57.5%.

N#Cc1ccc(C(=O)Nc2ccc([Se][Se]c3ccc(NC(=O)c4ccc(C#N)cc4)cc3)cc2)cc1 [I.1d] gave an activity at 10 µM (MCF-7) of 79.1%, an activity at 10 µM (HT-29) of 109% and an activity at 10 µM (CCRF-CEM) of 101%.

With O=C(Nc1ccc([Se][Se]c2ccc(NC(=O)c3ccco3)cc2)cc1)c1ccco1 [I.1h] the activity at 10 µM (MCF-7) was 63.5%, the GI50 (MCF-7) was 18 ± 2.3 µM and the CC50 (MCF-7) was 76.6 ± 2.5 µM. The IC (TGI) (MCF-7) was 47.3 ± 2.4 µM, the activity at 10 µM (HT-29) was 62.1% and the GI50 (HT-29) was 17.4 ± 1.9 µM. It also gave a CC50 (HT-29) of 74.3 ± 0.7 µM, an IC (TGI) (HT-29) of 45.8 ± 1.2 µM and a GI50 (184B5) of 19.9 µM. For the same compound, the IC (TGI) (184B5) was 47.2 µM, the “Selectivity index (SI) = GI50 (184B5)/GI50 (MCF-7)” value (184B5) was 1.11 and the LC50 (50% lethal concentration) at 48 h [1] was 74.4 µM. For the same compound, the activity at 10 µM (CCRF-CEM) was 34.1%, the GI50 (CCRF-CEM) was 4.1 ± 2.4 µM and the CC50 (CCRF-CEM) was 72.8 ± 2.9 µM. The IC (TGI) (CCRF-CEM) was 36.1 ± 1.4 µM, the LC50 (PC-3) was 65.6 ± 4.1 µM and the GI50 (PC-3) was 2.3 ± 0.3 µM. For the same compound, the IC (TGI) (PC-3) was 27.6 ± 2.8 µM, the CC50 (HTB-54) was 76.3 ± 3.6 µM and the GI50 (HTB-54) was 20.8 ± 2.5 µM. For the same compound, the IC (TGI) (HTB-54) was 48.6 ± 1.8 µM, the GI50 (BEAS-2B) was 10.6 µM and the IC (TGI) (BEAS-2B) was 40.6 µM. For the same compound, the “Selectivity index (SI) = GI50 (BEAS-2B)/GI50 (HTB-54)” value (BEAS-2B; lung) was 0.51 and the LC50 (50% lethal concentration) at 48 h [2] was 70.7 µM.

For O=C(Nc1ccc([Se][Se]c2ccc(NC(=O)c3cccs3)cc2)cc1)c1cccs1 [I.1i], the activity at 10 µM (MCF-7) was 104%, the activity at 10 µM (HT-29) was 98.2% and the activity at 10 µM (CCRF-CEM) was 100%.

For O=C(Nc1ccc([Se][Se]c2ccc(NC(=O)c3ccno3)cc2)cc1)c1ccno1 [I.1j], the activity at 10 µM (MCF-7) was 92.2%, the activity at 10 µM (HT-29) was 98.9% and the activity at 10 µM (CCRF-CEM) was 112%.

O=C(Nc1ccc([Se][Se]c2ccc(NC(=O)C34CC5CC(CC(C5)C3)C4)cc2)cc1)C12CC3CC(CC(C3)C1)C2 [I.1k] gave an activity at 10 µM (MCF-7) of 88%, an activity at 10 µM (HT-29) of 97.1% and an activity at 10 µM (CCRF-CEM) of 90.2%.

O=C(/C=C/c1ccccc1)Nc1ccc([Se][Se]c2ccc(NC(=O)/C=C/c3ccccc3)cc2)cc1 [I.1l] gave an activity at 10 µM (MCF-7) of 76.7%, an activity at 10 µM (HT-29) of 93% and an activity at 10 µM (CCRF-CEM) of 50%.

In the case of O=C(Nc1ccc([Se][Se]c2ccc(NC(=O)c3cccc4ccccc34)cc2)cc1)c1cccc2ccccc12 [I.1m], the activity at 10 µM (MCF-7) is reported as 75.5%, the activity at 10 µM (HT-29) is reported as 78.8% and the activity at 10 µM (CCRF-CEM) is reported as 74.4%.

In the case of N#C[Se]c1ccc(NC(=O)c2ccccc2)cc1 [I.2a], the activity at 10 µM (MCF-7) is reported as 63.7%, the activity at 10 µM (HT-29) is reported as 71.6% and the activity at 10 µM (CCRF-CEM) is reported as 103%.

In the case of COc1ccc(C(=O)Nc2ccc([Se]C#N)cc2)cc1 [I.2c], the activity at 10 µM (MCF-7) is reported as 97.8%, the activity at 10 µM (HT-29) is reported as 93.3% and the activity at 10 µM (CCRF-CEM) is reported as 76.5%.
